Like-named read-outs stand apart in the source and are kept apart here.
How the values were obtained:
surgically stressed rats [1] = test: Effect on body electrolyte: urinary electrolyte after continuous administration in glucose-electrolytes infusion solution (SOLITA-T No. 3)
Protocol: (§1) The solution was continuously administered to surgically stressed rats underwent intestinal tract scratch operation at a normal dose (240 mL/kg/day) for 3 days. On the final day of administration, urine was collected by 24-hour urine collection and measured for the urinary electrolyte concentration.

surgically stressed rats [2] = settings: rat, in vivo
Protocol: as §1

[3] = HMB final concentration 0.42 weight/volume % in SOLITA-T No. 3, 240 mL/kg/day for 3 days, 24-hour urine of the final day

Structure (SMILES) | Urinary calcium excretion amount (surgically stressed rats [1]; [3]) | Urinary phosphate excretion amount (surgically stressed rats [1]; [3]) | Electrolyte abnormality (urinary calcium, urinary phosphate) in combined administration with SOLITA-T No. 3 infusion solution (surgically stressed rats [1]; in words) | Electrolyte abnormality (urinary calcium, urinary phosphate) in combined administration with SOLITA-T No. 3 infusion solution (surgically stressed rats [2])
CC(C)(O)CC(=O)O.N=C(N)NCCCC(N)C(=O)O (stereo not shown) [Arginine salt nonhydrate of HMB, arginine salt nonhydrate of HMB] | 0.24 mg/day | 19.1 mg/day | does not induce the above electrolyte abnormality | –
CC(C)(O)CC(=O)[O-].CC(C)(O)CC(=O)[O-].[Ca+2] [Calcium salt hydrate of HMB, calcium salt hydrate of HMB] | – | – | – | induces the increase in urinary calcium and the decrease in urinary phosphate excretion

Reference: patent US11098007B2, “Crystal of amino acid salt of 3-hydroxyisovaleric acid and production method thereof” (KYOWA HAKKO BIO CO., LTD., priority 2016, dated 2021)
